Source: patent US8202906B2, “Use of docosahexanoic acid as active substance for the treatment of lipodystrophy” (Proyecto Empresarial Brudy, S.L., priority 2002, dated 2012)
Several values for one entry are separate records, joined by “and”; a condition that tells them apart may be missing. Equal entries are not always repeated.

Columns and labels:
[1] = tested on: HIV-infected patients under HAART regimen and presenting lipodystrophy syndrome; experiment: Example 1: 3 months' administration to HIV-infected patients under HAART with lipodystrophy syndrome; format: in vivo, human; parameters: LDL / VLDL / COL. / TG / HDL: unit not given here; conditions: 4 grams/day
Protocol: Four HIV-infected patients under HAART regimen and presenting lipodystrophy syndrome were administered 4 grams/day of a tuna oil with a DHA content of 70%. After three months' administration of DHA to said patients, the following discoveries were made, even taking account of the short period of administration: • 1. […] Mean reduction of 56% in the plasma triglycerides number. • 3. Mean reduction of 25% in the total plasma cholesterol number. • 4. Mean increase of 9% in the plasma HDL cholesterol number. • 5. Mean reduction of 18% in the plasma LDL cholesterol number.

[2] = tested on: patients treated with DHA (lipodystrophy); experiment: Example 2: 300-day monitoring of the four patients treated with DHA; format: in vivo, human; parameters: COL. / VLDL / TG / HDL / LDL: unit not given here; conditions: for COL. / HDL / LDL / TG / VLDL: individual patients 1-4
Text: From the four patients treated with DHA at elevated dosages (1.5 g/day), all of them have been monitored for 300 days and, although notable fluctuations are observed, especially regarding to the triglicerids (see Table 2), after 300 days of monitoring, the reduction's mean in the number of triglycerids with respect to the basal level is 66% and for the cholesterol is 28.0%.
All patients have improved their fat redistribution, from the point of view subjective and according to the skill's criterion.

[3] = 3 months, mean of four patients
[4] = after 3 months of treatment, individual patients 1-4
[5] = 1.5 g/day, after 300 days of monitoring, four patients

SMILES: CC/C=C\C/C=C\C/C=C\C/C=C\C/C=C\C/C=C\CCC(=O)O [DHA, docosahexaenoic acid]
- Mean increase in the plasma HDL cholesterol number [1, 3]: 9%
- Mean reduction in the plasma LDL cholesterol number [1, 3]: 18%
- Mean reduction in the plasma triglycerides number [1, 3]: 56%
- Mean reduction in the total plasma cholesterol number [1, 3]: 25%
- COL. [1, 4]: 5.46 and 9.48 and 3.82 and 9.9
- HDL [1, 4]: 1.57 and 0.91 and 1.05 and 0.98
- LDL [1, 4]: 3.43 and 3.35 and 1.97 and 6.67
- TG [1, 4]: 1 and 10.66 and 1.73 and 3.41
- VLDL [1, 4]: 0.46 and 3.74 and 0.8 and 1.82
- drop of HDL cholesterol [2, 5]: 11.6%
- reduction's mean in the cholesterol with respect to the basal level [2, 5]: 28.0%
- reduction's mean in the number of triglycerids with respect to the basal level [2, 5]: 66%
- COL. ([2]; 15 days of treatment): 6.37 and 9.74 and 3.92 and 8.73
- HDL ([2]; 15 days of treatment): 1.7 and 0.98 and 1.05 and 1.03
- LDL ([2]; 15 days of treatment): 4.14 and 6.07 and 1.86 and 5.35
- TG ([2]; 15 days of treatment): 1.16 and 5.98 and 3.11 and 5.18
- VLDL ([2]; 15 days of treatment): 0.53 and 2.61 and 1.01 and 2.35
- COL. ([2]; 30 days of treatment): 6.16 and 8.4 and 4.07 and 8.5
- HDL ([2]; 30 days of treatment): 1.79 and 0.86 and 1.06 and 1.16
- LDL ([2]; 30 days of treatment): 3.7 and 4.3 and 2.0 and 5.0
- TG ([2]; 30 days of treatment): 1.35 and 6.9 and 3.09 and 5.74
- VLDL ([2]; 30 days of treatment): 0.62 and 3.18 and 0.97 and 2.26
- COL. ([2]; 60 days of treatment): 5.46 and 9.48 and 3.82 and 9.9
- HDL ([2]; 60 days of treatment): 1.57 and 0.91 and 1.05 and 0.98
- LDL ([2]; 60 days of treatment): 3.43 and 3.35 and 1.97 and 6.67
- TG ([2]; 60 days of treatment): 1 and 10.66 and 1.73 and 3.41
- VLDL ([2]; 60 days of treatment): 0.46 and 3.74 and 0.8 and 1.82
- COL. ([2]; 120 days of treatment): 5.49 and 8.24 and 3.47 and 13.63
- HDL ([2]; 120 days of treatment): 1.56 and 1.08 and 1.16 and 0.7
- LDL ([2]; 120 days of treatment): 3.26 and 4.6 and 1.61 and 1.46
- TG ([2]; 120 days of treatment): 1.45 and 6.36 and 1.51 and 31.7
- VLDL ([2]; 120 days of treatment): 0.67 and 2.56 and 0.7 and 9.67
- COL. ([2]; 180 days of treatment): 6.15 and 9.64 and 3.76 and 13.21
- HDL ([2]; 180 days of treatment): 1.56 and 1.04 and 0.94 and 1.48
- LDL ([2]; 180 days of treatment): 3.38 and 2.3 and 1.5 and 2.09
- TG ([2]; 180 days of treatment): 2.63 and 15.75 and 2.87 and 16.37
- VLDL ([2]; 180 days of treatment): 1.21 and 4.38 and 132 and 3.97
- COL. ([2]; 240 days of treatment): 5.7 and 8.1 and 4.04 and 5.33
- HDL ([2]; 240 days of treatment): 1.67 and 0.98 and 1.09 and 1.17
- LDL ([2]; 240 days of treatment): 3.3 and 4.93 and 2.1 and 3.16
- TG ([2]; 240 days of treatment): 1.59 and 5.36 and 1.85 and 2.18
- VLDL ([2]; 240 days of treatment): 0.73 and 2.12 and 0.85 and 1
- COL. ([2]; 300 days of treatment): 6.01 and 9.3 and 4.34 and 4.27
- HDL ([2]; 300 days of treatment): 1.23 and 1.08 and 0.89 and 1.22
- LDL ([2]; 300 days of treatment): 4.06 and 5.31 and 2.7 and 2.42
- TG ([2]; 300 days of treatment): 1.57 and 7.21 and 1.62 and 1.36
- VLDL ([2]; 300 days of treatment): 0.72 and 2.92 and 0.75 and 0.63
